Test results as given in patent US8791123B2, “Substituted pyrazolo[1,5-a]pyrimidine compounds as Trk kinase inhibitors” (Array Biopharma, Inc., priority 2009, dated 2014).
Like-named read-outs stand apart in the source and are kept apart here.

Columns and labels:
[1] = molecular target: TrkA (histidine-tagged recombinant human TrkA, cytoplasmic domain) (Homo sapiens (Human), UniProt P04629); assay: TrkA ELISA Assay; assay type: biochemical; details: Table 1; ELISA, 500 μM ATP; read-out: TrkA Enzyme IC50
Experimental: An enzyme-linked immunosorbant assay (ELISA) was used to assess TrkA kinase activity in the presence of inhibitors. Immulon 4HBX 384-well microtiter plates (Thermo part #8755) were coated with a 0.025 mg/mL solution of poly (Glu, Ala, Tyr; 6:3:1; Sigma P3899). […] The reaction mixture was removed from the plate by washing with PBS containing 0.1% (v/v) Tween 20. The phosphorylated reaction product was detected using 0.2 μg/mL of a phosphotyrosine specific monoclonal antibody (clone PY20) conjugated to horseradish peroxidase in conjunction with the TMB Peroxidase Substrate System (KPL). After the addition of 1M phosphoric acid, the chromogenic substrate color intensity was quantitated via absorbance at 450 nm.

Human Jak2 kinase domain = Human Jak2 kinase domain (Homo sapiens (Human), UniProt O60674); assay: Jak2 Inhibition Assay (Omnia kinase assay); assay type: biochemical; details: read-out: Jak2 Enzyme IC50
Experimental: The assays described in Examples C, D, E and F for the determination of JAK1, JAK2, JAK3 and Tyk2 kinase activity, respectively, utilized the Omnia® Kinase fluorescence peptide substrate-based technology (Invitrogen). […] The reactions were therefore read at excitation 360 nm and emission was measured at 485 nm every 50 seconds for 45 minutes using a PerkinElmer EnVision Multilabel Plate Reader.
The final buffer conditions for each of the JAK1, JAK2, JAK3 and Tyk2 assays were as follows: 25 mM HEPES, pH 7.4, 10 mM MgCl2, 0.01% Triton X-100 and 1 mM DTT.
Two-μL aliquots of these were transferred to a fresh plate for a ten-fold intermediate dilution with assay buffer. Five-μL aliquots of the diluted compounds were then transferred to 20-μL of assay mixtures described in Examples C, D, E and F for a final concentration of DMSO of 2%. […] For each plate, percent of control (POC) values were calculated for each well according to the following equation:
[formula] • where • Xmax=Average Uninhibited Controls • Xmin=Average Background IC50's were estimated from the POC's using a standard 4-parameter logistic model:
[formula] • where • A=Minimum Y (Bottom Asymptote) • B=Maximum Y (Top Asymptote) • C=EC50 • D=Slope Factor • X=Compound Concentration (nM) • Y=POC
The IC50 is defined as the concentration of inhibitor at which the POC equals 50 for the fitted curve.
Compounds of Formula I were screened for their ability to inhibit Jak2 using the general enzyme inhibition assay method, in which the assay mixture contained 500 μM ATP, 10 μM Omnia® Y7 peptide (Catalog # IVGN KNZ3071C, Invitrogen Corporation, Carlsbad, Calif.) and 4 nM Jak2 in a total volume of 20 μL. Human Jak2 kinase domain comprising amino acids 808-1132 was purchased from Invitrogen Corporation, Carlsbad, Calif. (catalog # IVGN PV4210).

[2] = Table 1, 500 μM ATP, >1000 nM when >50% inhibition not observed at 1000 nM

Human Jak2 kinase domain, sequence (O60674 808-1132): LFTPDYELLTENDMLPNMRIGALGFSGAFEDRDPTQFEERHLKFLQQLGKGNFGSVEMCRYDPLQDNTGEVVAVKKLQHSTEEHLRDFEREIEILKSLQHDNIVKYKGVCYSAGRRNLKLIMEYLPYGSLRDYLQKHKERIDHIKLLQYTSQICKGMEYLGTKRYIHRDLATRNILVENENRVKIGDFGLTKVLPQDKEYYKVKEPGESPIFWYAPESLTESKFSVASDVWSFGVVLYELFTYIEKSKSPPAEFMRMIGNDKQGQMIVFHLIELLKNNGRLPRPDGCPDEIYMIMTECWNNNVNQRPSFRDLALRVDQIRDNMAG
TrkA (histidine-tagged recombinant human TrkA, cytoplasmic domain), sequence (P04629 440-796): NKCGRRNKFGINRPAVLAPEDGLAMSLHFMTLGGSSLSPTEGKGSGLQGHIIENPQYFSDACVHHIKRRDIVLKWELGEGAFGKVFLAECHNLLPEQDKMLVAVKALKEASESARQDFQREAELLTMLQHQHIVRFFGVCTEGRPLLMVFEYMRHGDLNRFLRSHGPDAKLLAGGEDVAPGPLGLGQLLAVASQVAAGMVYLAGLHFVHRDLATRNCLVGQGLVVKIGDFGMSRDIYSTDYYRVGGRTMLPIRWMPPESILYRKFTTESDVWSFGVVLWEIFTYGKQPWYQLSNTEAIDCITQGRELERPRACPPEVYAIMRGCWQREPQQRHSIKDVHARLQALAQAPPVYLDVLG

Row | SMILES | IC50 [1] | IC50 (Human Jak2 kinase domain; [2]) | IC50 (Human Jak2 kinase domain)
1 | CC(C)(CF)NC(=O)c1cnn2ccc(N3CCC[C@@H]3c3cncc(F)c3)nc12 [Example 71, (R)—N-(1-fluoro-2-methylpropan-2-yl)-5-(2-(5-fluoropyridin-3-yl)pyrrolidin-1-yl)pyrazolo[1,5-a]pyrimidine-3-carboxamide] | 8.65 nM | > 1000 nM | 
2 | Cc1ncc(F)cc1[C@H]1CCCN1c1ccn2ncc(C(=O)N[C@@H]3CCC[C@H]3O)c2n1 [Example 197, 5-((R)-2-(5-fluoro-2-methylpyridin-3-yl)pyrrolidin-1-yl)-N-((1R,2R)-2-hydroxycyclopentyl)pyrazolo[1,5-a]pyrimidine-3-carboxamide] | 4.8 nM | > 1000 nM | 
3 | O=C(NC[C@H](O)CO)c1cnn2ccc(N3CCC[C@@H]3c3cc(F)ccc3C(F)(F)F)nc12 [Example 62, N—((S)-2,3-dihydroxypropyl)-5-((R)-2-(5-fluoro-2-(trifluoromethyl)phenyl)pyrrolidin-1-yl)pyrazolo[1,5-a]pyrimidine-3-carboxamide] | 2.53 nM | > 1000 nM | 
4 | CC1(C)CC[C@H](c2cc(F)ccc2F)N1c1ccn2ncc(C(=O)NC3CC3)c2n1 [Example 68, (R)—N-cyclopropyl-5-(5-(2,5-difluorophenyl)-2,2-dimethylpyrrolidin-1-yl)pyrazolo[1,5-a]pyrimidine-3-carboxamide] | 6.6 nM | > 1000 nM | 
5 | NS(=O)(=O)CCNC(=O)c1cnn2ccc(N3CCC[C@@H]3c3cc(F)ccc3F)nc12 [Example 47, (R)-5-(2-(2,5-difluorophenyl)pyrrolidin-1-yl)-N-(2-sulfamoylethyl)pyrazolo[1,5-a]pyrimidine-3-carboxamide] | 1.5 nM |  | > 1000 nM
6 | O=C(NCC(F)CCl)c1cnn2ccc(N3CCC[C@@H]3c3cncc(F)c3)nc12 (stereo partly drawn) [Example 97, N-(3-chloro-2-fluoropropyl)-5-((R)-2-(5-fluoropyridin-3-yl)pyrrolidin-1-yl)pyrazolo[1,5-a]pyrimidine-3-carboxamide] | 6.2 nM | > 1000 nM | 
7 | O=C(NCC(F)(F)F)c1cnn2ccc(N3CCC[C@@H]3c3cncc(F)c3)nc12 [Example 131, (R)-5-(2-(5-fluoropyridin-3-yl)pyrrolidin-1-yl)-N-(2,2,2-trifluoroethyl)pyrazolo[1,5-a]pyrimidine-3-carboxamide] | 5 nM | > 1000 nM | 
8 | Cn1cnc(CNC(=O)c2cnn3ccc(N4CCC[C@@H]4c4cc(F)ccc4F)nc23)c1 [Example 21, (R)-5-(2-(2,5-difluorophenyl)pyrrolidin-1-yl)-N-((1-methyl-1H-imidazol-4-yl)methyl)pyrazole[1,5-a]pyrimidine-3-carboxamide] | 2.95 nM | > 1000 nM | 
9 | COc1ncc(F)cc1[C@H]1CCCN1c1ccn2ncc(C(=O)N3CC(C)(O)C3)c2n1 [Example 147, (R)-(5-(2-(5-fluoro-2-methoxypyridin-3-yl)pyrrolidin-1-yl)pyrazolo[1,5-a]pyrimidin-3-yl)(3-hydroxy-3-methylazetidin-1-yl)methanone] | 30.8 nM | > 1000 nM | 
10 | C[C@@H](CO)NC(=O)c1cnn2ccc(N3CCC[C@@H]3c3cncc(F)c3)nc12 [Example 116, 5-((R)-2-(5-fluoropyridin-3-yl)pyrrolidin-1-yl)-N-((S)-1-hydroxypropan-2-yl)pyrazolo[1,5-a]pyrimidine-3-carboxamide] | 26.2 nM | > 1000 nM | 
11 | CC(C)(N)CNC(=O)c1cnn2ccc(N3CCC[C@@H]3c3cc(F)ccc3F)nc12 [Example 58, (R)—N-(2-amino-2-methylpropyl)-5-(2-(2,5-difluorophenyl)pyrrolidin-1-yl)pyrazolo[1,5-a]pyrimidine-3-carboxamide] | 9.4 nM | > 1000 nM | 
12 | O=C(NC1CCOCC1)c1cnn2ccc(N3CCC[C@@H]3c3cncc(F)c3)nc12 [Example 72, (R)-5-(2-(5-fluoropyridin-3-yl)pyrrolidin-1-yl)-N-(tetrahydro-2H-pyran-4-yl)pyrazolo[1,5-a]pyrimidine-3-carboxamide] | 44.4 nM | > 1000 nM | 
13 | CNC(=O)c1cnn2ccc(N3CCC[C@@H]3c3cc(F)cnc3C)nc12 [Example 186, (R)-5-(2-(5-fluoro-2-methylpyridin-3-yl)pyrrolidin-1-yl)-N-methylpyrazolo[1,5-a]pyrimidine-3-carboxamide] | 57.1 nM | > 1000 nM | 
14 | O=C(NCCO)c1cnn2ccc(N3CCC[C@@H]3c3cncc(F)c3)nc12 [Example 112, (R)-5-(2-(5-fluoropyridin-3-yl)pyrrolidin-1-yl)-N-(2-hydroxyethyl)pyrazolo[1,5-a]pyrimidine-3-carboxamide] | 30.9 nM | > 1000 nM | 
15 | O=C(c1cnn2ccc(N3CCC[C@@H]3c3cncc(F)c3)nc12)N1CC[C@H](O)C1 [Example 128, (5-((R)-2-(5-fluoropyridin-3-yl)pyrrolidin-1-yl)pyrazolo[1,5-a]pyrimidin-3-yl)((S)-3-hydroxypyrrolidin-1-yl)methanone] | 2600 nM | > 1000 nM | 
16 | NC(=O)c1cnn2ccc(N3CCC[C@@H]3c3cc(F)cc(OCC(O)CO)c3)nc12 (stereo partly drawn) [Example 209, 5-((2R)-2-(3-(2,3-dihydroxypropoxy)-5-fluorophenyl)pyrrolidin-1-yl)pyrazolo[1,5-a]pyrimidine-3-carboxamide] | 17.1 nM | > 1000 nM | 
17 | CC1(NC(=O)c2cnn3ccc(N4[C@H](CO)CC[C@@H]4c4cncc(F)c4)nc23)CC1 [Example 214, 5-((2R,5S)-2-(5-fluoropyridin-3-yl)-5-(hydroxymethyl)pyrrolidin-1-yl)-N-(1-methylcyclopropyl)pyrazolo[1,5-a]pyrimidine-3-carboxamide] | 8.6 nM | > 1000 nM | 
18 | O=C(Nc1ccccn1)c1cnn2ccc(N3CCC[C@@H]3c3cc(F)ccc3F)nc12 [Example 2, (R)-5-(2-(2,5-difluorophenyl)pyrrolidin-1-yl)-N-(pyridin-2-yl)pyrazolo[1,5-a]pyrimidine-3-carboxamide] | 0.7 nM | > 1000 nM | 
19 | CC(C)NC(=O)c1cnn2ccc(N3CCC[C@@H]3c3cc(F)cn(C)c3=O)nc12 [Example 227, (R)-5-(2-(5-fluoro-1-methyl-2-oxo-1,2-dihydropyridin-3-yl)pyrrolidin-1-yl)-N-isopropylpyrazolo[1,5-a]pyrimidine-3-carboxamide] | 12.3 nM | 446 nM | 
20 | COCCNC(=O)c1cnn2ccc(N3CCC[C@@H]3c3cc(F)cnc3C)nc12 [Example 191, (R)-5-(2-(5-fluoro-2-methylpyridin-3-yl)pyrrolidin-1-yl)-N-(2-methoxyethyl)pyrazolo[1,5-a]pyrimidine-3-carboxamide] | 69.5 nM | > 1000 nM | 
21 | O=C(c1cnn2ccc(N3CCC[C@@H]3c3cncc(F)c3)nc12)N1CC(O)C1 [Example 108, (R)-(5-(2-(5-fluoropyridin-3-yl)pyrrolidin-1-yl)pyrazolo[1,5-a]pyrimidin-3-yl)(3-hydroxyazetidin-1-yl)methanone] | 1190 nM | > 1000 nM | 
22 | CC(C)[C@H](CO)NC(=O)c1cnn2ccc(N3CCC[C@@H]3c3cncc(F)c3)nc12 [Example 122, 5-((R)-2-(5-fluoropyridin-3-yl)pyrrolidin-1-yl)-N-((R)-1-hydroxy-3-methylbutan-2-yl)pyrazolo[1,5-a]pyrimidine-3-carboxamide] | 33.2 nM | > 1000 nM | 
23 | Cn1cc(F)cc([C@H]2CCCN2c2ccn3ncc(C(=O)NC(C)(C)C)c3n2)c1=O [Example 226, (R)—N-tert-butyl-5-(2-(5-fluoro-1-methyl-2-oxo-1,2-dihydropyridin-3-yl)pyrrolidin-1-yl)pyrazolo[1,5-a]pyrimidine-3-carboxamide] | 10.5 nM | > 1000 nM | 
24 | CC(C)(C)NC(=O)c1cnn2ccc(N3CCC[C@@H]3c3cccc(F)c3)nc12 [Example 36, (R)—N-tert-butyl-5-(2-(3-fluorophenyl)pyrrolidin-1-yl)pyrazolo[1,5-a]pyrimidine-3-carboxamide] | 2.1 nM | > 1000 nM | 
25 | O=C(NCC(F)F)c1cnn2ccc(N3CCC[C@@H]3c3cncc(F)c3)nc12 [Example 134, (R)-N-(2,2-difluoroethyl)-5-(2-(5-fluoropyridin-3-yl)pyrrolidin-1-yl)pyrazolo[1,5-a]pyrimidine-3-carboxamide] | 7.4 nM | > 1000 nM | 
